For the experiment, the system named is CN0375-F725-PDC KRAS spheroid viability. Put plainly: Anticancer human tumor CN0375-F725-PDC patient-derived colon carcinoma cell line growth inhibition [KRAS2]. As to conditions: spheroids with HUVEC and MSC; for viability, T/C: stronger effect = lower value. The essentials: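 Combination screen of spheroid viability in tumor-cell co-cultures with endothelial (HUVEC) and mesenchymal stem cell stroma. Each agent was tested in half-log dilutions, topping at clinical Cmax or at 10 microM without a known Cmax.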

Setting [1] is: curve of first compound, second compound 0.1 µM.
[2] abbreviates: curve of first compound, second compound 0.316 µM.
[3] abbreviates: curve of first compound, second compound 1 µM.
Where [4] appears, read: curve of first compound, second compound 3.16 µM.
Setting [5] is: second compound 0.1 µM, first compound 0.0316 µM.
[6] abbreviates: second compound 0.1 µM, first compound 0.1 µM.
The mark [7] stands for this setting: second compound 0.316 µM, first compound 0.0316 µM.
[8] abbreviates: second compound 0.316 µM, first compound 0.1 µM.
Setting [9] is: second compound 1 µM, first compound 0.0316 µM.
Where [10] appears, read: second compound 1 µM, first compound 0.1 µM.
Setting [11] is: second compound 3.16 µM, first compound 0.0316 µM.
The mark [12] stands for this setting: second compound 3.16 µM, first compound 0.1 µM.

Bounds are passed on as bounds.
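Further: spheroids exposed to agents for 7 days.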

For orientation: IC50 means the midpoint of a concentration-inhibition curve. A word on the viability, T/C: it is the ratio of treated to control. For the compound `CC1OCC2(CCN(c3cnc(Sc4ccnc(N)c4Cl)c(N)n3)CC2)C1N` (stereo not drawn) + C=CC(=O)N1CCN(c2nc(=O)n(-c3c(C)ccnc3C(C)C)c3nc(-c4c(O)cccc4F)c(F)cc23)C(C)C1, the IC50 was above 10000 nM under setting [1]; above 10000 nM under setting [2]; above 10000 nM under setting [3]; above 10000 nM under setting [4]; above 10000 nM (curve of first compound, second compound 10 µM). In addition, the viability, T/C is 102% under setting [5]; 86.4% under setting [6]; 82.5% (second compound 0.1 µM, first compound 0.316 µM); 79.1% (second compound 0.1 µM, first compound 1 µM); 77.2% (second compound 0.1 µM, first compound 3.16 µM); 63.6% (second compound 0.1 µM, first compound 10 µM). Moreover, the viability, T/C by setting is: under setting [7], 98.8%; under setting [8], 85.5%; (second compound 0.316 µM, first compound 0.316 µM) 78.3%; (second compound 0.316 µM, first compound 1 µM) 79.9%; (second compound 0.316 µM, first compound 3.16 µM) 77.5%; (second compound 0.316 µM, first compound 10 µM) 59.8%. Moreover, the viability, T/C is 96.3% under setting [9]; 99.3% under setting [10]; 86.3% (second compound 1 µM, first compound 0.316 µM); 82.9% (second compound 1 µM, first compound 1 µM); 75.2% (second compound 1 µM, first compound 3.16 µM); 65.6% (second compound 1 µM, first compound 10 µM). Moreover, the viability, T/C is 104% under setting [11]; 92.4% under setting [12]; 81.4% (second compound 3.16 µM, first compound 0.316 µM); 81% (second compound 3.16 µM, first compound 1 µM); 71.6% (second compound 3.16 µM, first compound 3.16 µM); 65.6% (second compound 3.16 µM, first compound 10 µM). Further, the viability, T/C is 94% (second compound 10 µM, first compound 0.0316 µM); 92.2% (second compound 10 µM, first compound 0.1 µM); 77.9% (second compound 10 µM, first compound 0.316 µM); 66.3% (second compound 10 µM, first compound 1 µM); 61.8% (second compound 10 µM, first compound 3.16 µM); 49.6% (second compound 10 µM, first compound 10 µM).
Regarding `CC(C)n1nc(-c2ccc3oc(N)nc3c2)c2c(N)ncnc21` + C=CC(=O)N1CCN(c2nc(OCC3CCCN3C)nc3c2CCN(c2cccc4cccc(C)c24)C3)CC1CC#N, the IC50 is 54.2 nM (curve of first compound, second compound 0.0316 µM); 39.2 nM under setting [1]; 56.6 nM under setting [2]; 42.7 nM under setting [3]; below 0.316 nM under setting [4]. Moreover, the viability, T/C was 106% (second compound 0.0316 µM, first compound 0.000316 µM); 96.5% (second compound 0.0316 µM, first compound 0.001 µM); 76.8% (second compound 0.0316 µM, first compound 0.00316 µM); 70.1% (second compound 0.0316 µM, first compound 0.01 µM); 57.5% (second compound 0.0316 µM, first compound 0.0316 µM); 42.4% (second compound 0.0316 µM, first compound 0.1 µM). Also, the viability, T/C (second compound 0.1 µM, first compound 0.000316 µM) is 103%; the viability, T/C (second compound 0.1 µM, first compound 0.001 µM) was 95.2%; the viability, T/C (second compound 0.1 µM, first compound 0.00316 µM) is 78.8%; the viability, T/C (second compound 0.1 µM, first compound 0.01 µM) was 63.8%; the viability, T/C under setting [5] is 51.9%; the viability, T/C under setting [6] was 43.9%. In addition, the viability, T/C (second compound 0.316 µM, first compound 0.000316 µM) was 103%; the viability, T/C (second compound 0.316 µM, first compound 0.001 µM) was 98%; the viability, T/C (second compound 0.316 µM, first compound 0.00316 µM) was 78.3%; the viability, T/C (second compound 0.316 µM, first compound 0.01 µM) was 63.7%; the viability, T/C under setting [7] was 56.6%; the viability, T/C under setting [8] was 45%. The viability, T/C runs as follows: (second compound 1 µM, first compound 0.000316 µM) 87.4%; (second compound 1 µM, first compound 0.001 µM) 91.2%; (second compound 1 µM, first compound 0.00316 µM) 75.1%; (second compound 1 µM, first compound 0.01 µM) 60%; under setting [9], 53.2%; under setting [10], 46.1%. Moreover, the viability, T/C runs as follows: (second compound 3.16 µM, first compound 0.000316 µM) 37.8%; (second compound 3.16 µM, first compound 0.001 µM) 11.5%; (second compound 3.16 µM, first compound 0.00316 µM) 31.4%; (second compound 3.16 µM, first compound 0.01 µM) 1.09%; under setting [11], 11.5%; under setting [12], 8.34%.
Consider `COc1cc(Nc2ncc3c(n2)-c2ccc(Cl)cc2C(c2c(F)cccc2OC)=NC3)ccc1C(=O)O`, for which the viability, T/C is 102% [middle of 5 runs] (compound 0.0316 µM); 101% [middle of 5 runs] (compound 0.1 µM); 93.7% [middle of 5 runs] (compound 0.316 µM); 96.3% [middle of 5 runs] (compound 1 µM); 94.8% [middle of 5 runs] (compound 3.16 µM); 78.3% [middle of 5 runs] (compound 10 µM). Besides, the IC50 (curve of compound) is above 10000 nM.
For the compound `Cn1ncnc1[C@H]1c2n[nH]c(=O)c3cc(F)cc(c23)N[C@@H]1c1ccc(F)cc1`, the viability, T/C is, setting by setting: (compound 0.000316 µM) 107% [middle of 5 runs]; (compound 0.001 µM) 102% [middle of 5 runs]; (compound 0.00316 µM) 99.8% [middle of 5 runs]; (compound 0.01 µM) 101% [middle of 5 runs]; (compound 0.0316 µM) 102% [middle of 5 runs]; (compound 0.1 µM) 96% [middle of 5 runs]. For the setting “curve of compound”, the IC50 is above 100 nM.
With `CC(=O)OC12COC1CC(O)C1(C)C(=O)C(O)C3=C(C)C(OC(=O)C(O)C(NC(=O)OC(C)(C)C)c4ccccc4)CC(O)(C(OC(=O)c4ccccc4)C21)C3(C)C` (stereo not drawn), the viability, T/C is, setting by setting: (compound 0.01 µM) 101% [middle of 5 runs]; (compound 0.0316 µM) 97.7% [middle of 5 runs]; (compound 0.1 µM) 89.3% [middle of 5 runs]; (compound 0.316 µM) 89% [middle of 5 runs]; (compound 1 µM) 83.2% [middle of 5 runs]; (compound 3.16 µM) 80.8% [middle of 5 runs]. In addition, the IC50 (curve of compound) is above 3160 nM.
For `CC1COCCN1c1cc(-c2ccnn2C)c2ccnc(-c3ccn[nH]3)c2n1` (stereo not drawn), the viability, T/C is 105% [middle of 5 runs] (compound 0.01 µM); 97.3% [middle of 5 runs] (compound 0.0316 µM); 90.8% [middle of 5 runs] (compound 0.1 µM); 85.7% [middle of 5 runs] (compound 0.316 µM); 72.1% [middle of 5 runs] (compound 1 µM); 58.4% [middle of 5 runs] (compound 3.16 µM). Where the note is “curve of compound”, the IC50 was above 3160 nM.
